Columns and labels:
[1] = test system: BJ; test: Cytotoxicity against human BJ cells after 72 hrs by luminescence assay; assay type: cell-based
[2] = test system: Raji; test: Cytotoxicity against human Raji cells after 72 hrs by luminescence assay; assay type: cell-based
[3] = Selectivity ratio of EC50 for human HepG2 cells to EC50 for Plasmodium falciparum
[4] = test system: HEK293; test: Cytotoxicity against human HEK293 cells after 72 hrs by luminescence assay; assay type: cell-based; conditions: hek293, 72 h
[5] = test system: HepG2; test: Cytotoxicity against human HepG2 cells after 72 hrs by luminescence assay; assay type: cell-based; conditions: hepg2, 72 h

Row | Compound | Activity [1] | Activity [2] | selectivity ratio [3] | Activity [4] | Activity [5]
1 | Cl.O=C(CCc1ccc(F)cc1)c1ccccc1OCC(O)CN1CCN(Cc2ccccc2)CC1 (racemic) | Non-toxic | Non-toxic | > 10 | Non-toxic | Non-toxic
2 | Cc1ccccc1N1CCN(CC(O)COc2ccccc2C(=O)CCc2ccc(F)cc2)CC1.Cl (racemic) | Non-toxic | Non-toxic | > 10 | Non-toxic | Non-toxic
3 | Cc1cccc(N2CCN(CC(O)COc3ccccc3C(=O)CCc3ccc(F)cc3)CC2)c1.Cl (racemic) | Non-toxic | Non-toxic | > 10 | Non-toxic | Non-toxic
4 | Cc1ccc(N2CCN(CC(O)COc3ccccc3C(=O)CCc3ccc(F)cc3)CC2)cc1.Cl (racemic) | Non-toxic | Non-toxic | > 10 | Non-toxic | Non-toxic
5 | COc1ccccc1N1CCN(CC(O)COc2ccccc2C(=O)CCc2ccc(F)cc2)CC1.Cl (racemic) | Non-toxic | Non-toxic | > 10 | Non-toxic | Non-toxic
6 | COc1cccc(N2CCN(CC(O)COc3ccccc3C(=O)CCc3ccc(F)cc3)CC2)c1.Cl (racemic) | Non-toxic | Non-toxic | > 10 | Non-toxic | Non-toxic
7 | COc1ccc(N2CCN(CC(O)COc3ccccc3C(=O)CCc3ccc(F)cc3)CC2)cc1.Cl (racemic) | Non-toxic | Non-toxic | > 10 | Non-toxic | Non-toxic
8 | Cl.O=C(CCc1ccc(F)cc1)c1ccccc1OCC(O)CN1CCN(c2ccccc2Cl)CC1 (racemic) | Non-toxic | Non-toxic | > 10 | Non-toxic | Non-toxic
9 | Cl.O=C(CCc1ccc(F)cc1)c1ccccc1OCC(O)CN1CCN(c2ccc(Cl)cc2)CC1 (racemic) | Non-toxic | Non-toxic | > 10 | Non-toxic | Non-toxic
10 | Cl.O=C(CCc1ccc(F)cc1)c1ccccc1OCC(O)CN1CCN(c2ccc(Cl)c(Cl)c2)CC1 (racemic) | Non-toxic | Non-toxic | > 10 | Non-toxic | Non-toxic
11 | Cl.O=C(CCc1ccc(F)cc1)c1ccccc1OCC(O)CN1CCN(c2ccccc2F)CC1 (racemic) | Non-toxic | Non-toxic | > 10 | Non-toxic | Non-toxic
12 | Cl.O=C(CCc1ccc(F)cc1)c1ccccc1OCC(O)CN1CCN(c2ccc(F)cc2)CC1 (racemic) | Non-toxic | Non-toxic | > 10 | Non-toxic | Non-toxic
13 | Cl.O=C(CCc1ccc(F)cc1)c1ccccc1OCC(O)CN1CCN(c2ccc([N+](=O)[O-])cc2)CC1 (racemic) | Non-toxic | Non-toxic | > 10 | Non-toxic | Non-toxic
14 | Cl.Nc1ccc(N2CCN(CC(O)COc3ccccc3C(=O)CCc3ccc(F)cc3)CC2)cc1 (racemic) | Non-toxic | Non-toxic | > 10 | Non-toxic | Non-toxic
15 | Cl.O=C(CCc1ccc(F)cc1)c1ccccc1OCC(O)CN1CCN(c2ccc(O)cc2)CC1 (racemic) | Non-toxic | Non-toxic | > 10 | Non-toxic | Non-toxic

From ChEMBL document CHEMBL1914304 (J Med Chem, 2011)
